Measured values from patent US20170065730A1, “COMPOSITION FOR IMAGING ATHEROSCLEROSIS AND METHOD FOR DIAGNOSING ATHEROSCLEROSIS BY USING SAME” (priority 2014, published 2017).

Test system: atherosclerotic site of the aorta
Assay: Fluorescence imaging of aorta sections after ear vein injection of RITC-MSA or RITC
Assay type: in vivo
Conditions: cholesterol diet rabbit, 10 minutes after ear vein injection
Procedure: Ten 12-week-old normal rabbits (New Zealand White rabbits) were used for experiment. They were randomly divided into two groups of 5 rabbits. One group was given a normal diet and the other group was given a diet containing 1% cholesterol. The animals were kept under a standardized condition (21° C., 41-62% humidity) with regular light/dark (10/14 hr) cycles and were given free access to water and feed. 3 months later, after intravenously injecting 1 mCi of ^68Ga-MSA under anesthesia, positron emission tomography was performed on the whole body for 10 minutes from 10 minutes after the injection (FIGS. 5 and 6). On the next day, the rabbits were anesthetized and RITC-MSA (42 μg/0.1 mL) or RITC mixed in 0.9% physiological saline was injected into the ear vein of the rabbits. 10 minutes later, the rabbits were euthanized and the aorta was cut and kept at −20° C. The aorta sections were fixed at room temperature for 30 minutes in a 4% (v/v) buffered formalin solution, washed with cold PBS (pH 7.4), embedded in optimum cutting temperature compound (OCT, Sakura, Tokyo) and kept at −80° C. after a day for tissue penetration. Tissue slices cut to a thickness of […] were mounted on slides together with poly-D-lysine and then kept at room temperature until use after drying at 45° C. in the shade. […]

**Q.** With rhodamine B isothiocyanate [RITC] as the substance, how does the “fluorescence / binding at the atherosclerotic site of the aorta” value read?
**A.** cannot be observed
